Test results taken from patent publication US11730712B2, “Functionalized long-chain hydrocarbon mono- and di-carboxylic acids and derivatives thereof, and their use for the prevention or treatment of disease” (ESPERVITA THERAPEUTICS, INC., priority 2021, dated 2023).

Tested on: liver fibrosis gene panel (770 genes)
Experiment: Nanostring nCounter Fibrosis panel gene expression in liver of DEN-injected mice
Format: in vivo, mouse
Settings: vs vehicle
Procedure: Nanostring Analysis. RNA was extracted from paired liver and tumor tissue from vehicle, Compound I-1 (100 mg/kg) and Compound I-32 (100 mg/kg) treated mice using an RNeasy kit (Qiagen, Calif., USA) as per manufacturer's protocol. All RNA samples passed the BioAnalyzer quality control test. The expression of target genes in liver and tumor were analyzed using the nCounter Fibrosis and Cancer Panel (NanoString Technologies, Inc., WA, USA), respectively according to manufacturer's protocol at the McMaster Genomics Facility. Technical and biological normalization against global geometric mean was performed in nSolver 4.0 software (NanoString Technologies). Technical normalization was performed in the nSolver software (version 4.0.70) by normalizing sample target raw counts to the geometric mean of positive control spike-ins. Biological normalization was performed by normalizing sample target raw counts to the geometric mean of selected housekeeping genes (Ppia, Nubp1, Nol7, Armh3, Rplp0, Cnot10, Pgk1, and Acad9). Pathway scores were calculated as the first principal component of the normalized expression values for all genes in each pathway and samples were compiled according to experimental groups to determine average pathway scores. Statistical significance was calculated between experimental groups using multiple t-tests and p-values were corrected for multiple comparisons using Benjamin-Hochberg false discovery rate.
Molecular analysis. To identify the pathways modulated in the liver and tumor tissue, nanostring analysis of fibrosis and cancer, pathways, respectively were completed in an n=8 mice treated with vehicle or Compound I-32 or Compound I-1 at 100 mg/kg.

CC(C)(CCCCc1cccc(CCCCC(C)(C)C(=O)O)c1)C(=O)O [Compound I-32, 6-[3-(5-carboxy-5-methylhexyl)-phenyl]-2,2-dimethylhexanoic acid]
Cpt1a Log2FC (NM_013495, 100 mg/kg): −0.363
Creb3 Log2FC (NM_013497, 100 mg/kg): −0.409
P3h3 Log2FC (NM_013534, 100 mg/kg): −0.96
Rora Log2FC (NM_013646, 100 mg/kg): 0.258
Slc25a10 Log2FC (NM_013770, 100 mg/kg): 0.324
H2-M3 Log2FC (NM_013819, 100 mg/kg): −0.633
Xbp1 Log2FC (NM_013842, 100 mg/kg): −0.29
Col5a1 Log2FC (NM_015734, 100 mg/kg): −0.601
Ero1l Log2FC (NM_015774, 100 mg/kg): 0.269
Cfhr1 Log2FC (NM_015780, 100 mg/kg): −0.283
Isg15 Log2FC (NM_015783, 100 mg/kg): −0.673
C6 Log2FC (NM_016704, 100 mg/kg): −1.04
Irf3 Log2FC (NM_016849, 100 mg/kg): −0.206
Actr1a Log2FC (NM_016860, 100 mg/kg): −0.192
Ywhag Log2FC (NM_018871, 100 mg/kg): 0.265
Fbp1 Log2FC (NM_019395, 100 mg/kg): −0.981
Ppp2ca Log2FC (NM_019411, 100 mg/kg): −0.123
Atf7ip Log2FC (NM_019426, 100 mg/kg): −0.289
Ndufa1 Log2FC (NM_019443, 100 mg/kg): 0.156
Htra2 Log2FC (NM_019752, 100 mg/kg): −0.286
Cpb2 Log2FC (NM_019775, 100 mg/kg): −0.467
Uba52 Log2FC (NM_019883, 100 mg/kg): 0.433
Ube2d2a Log2FC (NM_019912, 100 mg/kg): −0.231
Aldh9a1 Log2FC (NM_019993, 100 mg/kg): 0.467
Angptl4 Log2FC (NM_020581, 100 mg/kg): 0.413
Isg20 Log2FC (NM_020583, 100 mg/kg): −0.491
Abcb11 Log2FC (NM_021022, 100 mg/kg): −0.503
Rps6kb2 Log2FC (NM_021485, 100 mg/kg): −0.398
Cxcl12 Log2FC (NM_021704, 100 mg/kg): −0.535
Apoc3 Log2FC (NM_023114, 100 mg/kg): −0.391
Cxcl16 Log2FC (NM_023158, 100 mg/kg): −0.445
Ern1 Log2FC (NM_023913, 100 mg/kg): −0.451
Sec61b Log2FC (NM_024171, 100 mg/kg): −0.37
Hsbp1 Log2FC (NM_024219, 100 mg/kg): −0.155
Cyp27a1 Log2FC (NM_024264, 100 mg/kg): −0.71
Fabp4 Log2FC (NM_024406, 100 mg/kg): 0.887
Ndufb5 Log2FC (NM_025316, 100 mg/kg): 0.36
Ssr2 Log2FC (NM_025448, 100 mg/kg): −0.208
Psenen Log2FC (NM_025498, 100 mg/kg): −0.154
Ndufc1 Log2FC (NM_025523, 100 mg/kg): 0.363
Cox6b1 Log2FC (NM_025628, 100 mg/kg): 0.405
Uqcrh Log2FC (NM_025641, 100 mg/kg): 0.28
Uqcrfs1 Log2FC (NM_025710, 100 mg/kg): 0.188
Map1lc3a Log2FC (NM_025735, 100 mg/kg): 0.744
Ndufb8 Log2FC (NM_026061, 100 mg/kg): 0.279
Erp29 Log2FC (NM_026129, 100 mg/kg): −0.277
Uqcrb Log2FC (NM_026219, 100 mg/kg): 0.377
Sugt1 Log2FC (NM_026474, 100 mg/kg): 0.15
Atg101 Log2FC (NM_026566, 100 mg/kg): −0.483
Ndufs3 Log2FC (NM_026688, 100 mg/kg): 0.148
Ifi35 Log2FC (NM_027320, 100 mg/kg): −0.447
Pgm2 Log2FC (NM_028132, 100 mg/kg): 0.339
Phykpl Log2FC (NM_028398, 100 mg/kg): −0.288
Pik3cb Log2FC (NM_029094, 100 mg/kg): −0.412
Hcar2 Log2FC (NM_030701, 100 mg/kg): 1.41
Cpn1 Log2FC (NM_030703, 100 mg/kg): 0.351
Slc2a2 Log2FC (NM_031197, 100 mg/kg): −0.47
Lamtor2 Log2FC (NM_031248, 100 mg/kg): 0.189
Dock2 Log2FC (NM_033374, 100 mg/kg): −0.474
Ube2n Log2FC (NM_080560, 100 mg/kg): −0.194
Elovl6 Log2FC (NM_130450, 100 mg/kg): 1.22
Acaca Log2FC (NM_133360, 100 mg/kg): 0.893
Fgg Log2FC (NM_133862, 100 mg/kg): −0.387
Acacb Log2FC (NM_133904, 100 mg/kg): 0.681
Il1rap Log2FC (NM_134103, 100 mg/kg): −0.868
Ptpa Log2FC (NM_138748, 100 mg/kg): 0.222
Mylk Log2FC (NM_139300, 100 mg/kg): −0.532
Fegr4 Log2FC (NM_144559, 100 mg/kg): −0.638
Aldob Log2FC (NM_144903, 100 mg/kg): −0.6
C1s1 Log2FC (NM_144938, 100 mg/kg): −0.755
Txndc5 Log2FC (NM_145367, 100 mg/kg): −0.321
Ldlrap1 Log2FC (NM_145554, 100 mg/kg): −0.189
Jak1 Log2FC (NM_146145, 100 mg/kg): −0.166
C8a Log2FC (NM_146148, 100 mg/kg): −1.37
Pkhdi Log2FC (NM_153179, 100 mg/kg): −1.12
Nckap1l Log2FC (NM_153505, 100 mg/kg): −0.653
Mbtps2 Log2FC (NM_172307, 100 mg/kg): 0.306
Cyp4a12a Log2FC (NM_177406, 100 mg/kg): 1.42
Acaa2 Log2FC (NM_177470, 100 mg/kg): 0.314
Jmjd4 Log2FC (NM_178659, 100 mg/kg): −0.516
Nceh1 Log2FC (NM_178772, 100 mg/kg): 0.444
Hadha Log2FC (NM_178878, 100 mg/kg): 0.903
Mfap3 Log2FC (NM_180599, 100 mg/kg): −0.362
Bst2 Log2FC (NM_198095, 100 mg/kg): 0.494
Acsl4 Log2FC (NM_207625, 100 mg/kg): 0.737
Cflar Log2FC (NM_207653, 100 mg/kg): −0.25
Egfr Log2FC (NM_207655, 100 mg/kg): −0.93
Stat3 Log2FC (NM_213659, 100 mg/kg): −0.686
H2-K1 Log2FC (NM_001001892, 100 mg/kg): −0.168
Kdm2a Log2FC (NM_001001984, 100 mg/kg): −0.255
Cfhr2 Log2FC (NM_001025575, 100 mg/kg): −0.596
Ndufs5 Log2FC (NM_001030274, 100 mg/kg): 0.381
Itga1 Log2FC (NM_001033228, 100 mg/kg): −0.312
Dock1 Log2FC (NM_001033420, 100 mg/kg): −0.347
Xaf1 Log2FC (NM_001037713, 100 mg/kg): −0.701
Banf1 Log2FC (NM_001038231, 100 mg/kg): 0.339
Smurf Log2FC (NM_001038627, 100 mg/kg): −0.969
Seh1l Log2FC (NM_001039088, 100 mg/kg): 0.216
Nrp2 Log2FC (NM_001077403, 100 mg/kg): 0.619
Ptafr Log2FC (NM_001081211, 100 mg/kg): −0.408
Brpf3 Log2FC (NM_001081315, 100 mg/kg): 0.3
Aqp8 Log2FC (NM_001109045, 100 mg/kg): −0.632
Igf1 Log2FC (NM_001111274, 100 mg/kg): −0.588
Itga9 Log2FC (NM_001113514, 100 mg/kg): −0.212
Il1r1 Log2FC (NM_001123382, 100 mg/kg): −1.16
Aldh7a1 Log2FC (NM_001127338, 100 mg/kg): −0.344
Rnf152 Log2FC (NM_001160368, 100 mg/kg): −0.687
Cyfip1 Log2FC (NM_001164661, 100 mg/kg): −0.229
Slc25a13 Log2FC (NM_001177572, 100 mg/kg): −0.179
Syk Log2FC (NM_001198977, 100 mg/kg): −0.772
Cd84 Log2FC (NM_001252472, 100 mg/kg): −0.6
Apoc2 Log2FC (NM_001277944, 100 mg/kg): −0.94
Ncf1 Log2FC (NM_001286037, 100 mg/kg): −0.635
Cd68 Log2FC (NM_001291058, 100 mg/kg): −0.732
Itga5 Log2FC (NM_001314041, 100 mg/kg): −0.402
Col6a3 Log2FC (XM_897036, 100 mg/kg): −0.679
